Tests used:
[1] = tested on: competitive repopulating HSC; test: Long-term competitive repopulation assay of mobilized blood; format: in vivo, C57BL/6 mice
Experimental: FIGS. 3A and 3B are graphical representations showing that Compound X synergizes with G-CSF and Plerixafor to enhance mobilization of competitive repopulating HSCs. CD45.2^+ mice were mobilized with G-CSF for 2 or 4 days with G-CSF alone (filled circles), with G-CSF in combination with Plerixafor for 1 hr (filled triangles), with Compound X for 3 days (filled squares) or with both Plerixafor, 1 hr, and Compound X, 3 days (filled inverted triangles). Blood (20 μL) was transplanted in lethally irradiated recipients together with 200,000 competitive BM cells from CD45.1^+ mice. Proportion of blood CD45.2+ leukocytes at 16 weeks post-transplantation and number of repopulating units per mL of mobilized blood calculated from donor chimerism at 16 weeks post-transplantation from (3A) 2 days treatment with G-CSF and (3B) 4 days treatment with G-CSF. Each dot is a result from one recipient mouse, bars are average. *: p<0.05; ** 0.001<p<0.01; *** p<0.001.
This synergistic increase in HSC mobilization was further confirmed in long-term competitive repopulation assays following transplantation of 20 μL mobilized blood in competition with 2×10^5 BM cells from congenic donors. […] The number of mobilized long-term competitive repopulating HSC (measured 16 weeks post-transplant) doubled after treatment with 2 days G-CSF+1 h Plerixafor+3 days Compound X (G2P1X3) compared to G-CSF+Plerixafor (G2P1, p<0.05; FIG. 3A). […] The addition of Compound X to G-CSF (G4X3) increased 6-fold the number of mobilized repopulating units compared to G-CSF (G4) alone (P<0.001; FIG. 3B). The combination of Compound X with G-CSF and Plerixafor (G4P1X3) increased mobilization of repopulating units 3-fold compared to G-CSF+Plerixafor (G4P1) alone (P<0.001; FIG. 3B).
The content of mobilized blood samples in competitive repopulating HSC was determined in competitive repopulation assays as previously described (12,17). The day prior to blood harvest, recipient congenic B6.SJL CD45.1^+ female mice were lethally irradiated with 11.0Gy in two split doses 4 hours apart. 50 μL blood samples from 6 mobilized CD45.2^+ C57BL/6 donor mice were pooled within each treatment group and 20 μL blood aliquots were taken from this pool and mixed with 200,000 competitive whole BM cells from untreated B6.SJL CD45.1^+ in a total volume of 200 μL saline, and injected retro-orbitally into each lethally irradiated recipient. Recipients were maintained with antibiotics for the first 3 weeks post-transplant and tail bled 8, 12 and 16 weeks post-transplant to determine CD45.2 (test donor blood) versus CD45.1 (competitive whole BM cells) chimerism in myeloid, B and T lineages by flow cytometry using CD45.1-PE, CD45.2-allophycocyanin (APC), CD3-FITC, B220-allophycocyanin (APC)-cyanin (CY) 7, CD11b-PECY7, Ly6G-Pacific Blue. Content in repopulating units (RU) was calculated as previously described (18-19).

[2] = tested on: colony-forming cells (CFCs); test: Mobilization of colony-forming cells (CFC/CFU) to blood and spleen, colony assays; format: in vivo, C57BL/6 mice
Experimental: Mobilization of colony-forming cells (CFCs) to the blood and spleen were measured (FIG. 1B).
This was divided into two experiments in which G-CSF was administered for 2 days in one experiment and 4 days in the other (FIG. 2). […] Mobilization of CFCs, phenotypic Lin^−CD41^−Sca1^+Kit^+ HSPCs and Lin^−CD41^− Sca1^+Kit^+CD48^−CD150^+ HSCs were measured in blood and spleens.
Additional HIF-α potentiating agents in the form of PHD inhibitors were tested for their ability to enhance mobilization induced by G-CSF.
At the end of treatment, blood was harvested by cardiac puncture, mice were sacrificed by cervical dislocation and spleens harvested. Femurs were removed, cleaned and the bone marrow was flushed with 1 mL PBS+10% newborn calf serum (NCS).
The number of phenotypic hematopoietic stem and progenitor cells remaining in the bone marrow following treatment was measured by flow cytometry using antibodies specific for lineage markers (CD3, CD5, CD45R/B220, F4/80, Gr1, CD41, Ter119), Sca-1, Kit, CD48 and CD150. Similarly, the number of phenotypic hematopoietic stem cells mobilized into the blood and spleen were measured. Colony assays were also performed on blood and spleen to determine the number of colony forming cells per mL of blood and per spleen. […] Levels of significance for differences were calculated using the Student's t-test.
All procedures were approved by the animal experimentation ethics committee of the University of Queensland. […] Plerixafor (AMD3100 octohydrochloride, Tocris Bioscience, Bristol, UK) was injected intraperitoneally as a single 16 mg/kg dose corresponding to 10 mg/kg of AMD3100 base. Tissues were harvested 1 h after Plerixafor administration. […] Control mice were injected with an equivalent volume of saline. At specified time-points, mice were anesthetized with isoflurane before cardiac puncture to harvest blood. Mice were then euthanized by cervical dislocation and BM and bones harvested.
Optimal concentrations of mouse IL-3, IL-6 and soluble kit ligand were added as conditioned media from stably transfected BHK cell lines. Colonies were counted after 7 days culture at 37° C. in a humidified incubator containing 5% CO2.

[3] = Compound X added to 2 days G-CSF plus Plerixafor, p<0.005

## O=C(O)CNC(=O)c1ncc2cc(Sc3ccccc3)ccc2c1O [Compound X, [(4-Hydroxy-7-phenylsulfanyl-isoquinoline-3-carbonyl)-amino]-acetic acid]
[1]; 16 weeks post-transplant, G2P1X3 vs G2P1, p<0.05, FIG. 3A
  number of mobilized long-term competitive repopulating HSC versus G-CSF+Plerixafor: doubled
[1]; 2 days G-CSF+Plerixafor+Compound X (G2P1X3) vs G2P1, p<0.01
  competitive repopulating HSC mobilized (CD45.2/CD45.1 chimerism) versus G-CSF+Plerixafor: 6 fold
[1]; Compound X in combination with G-CSF and Plerixafor (discussion)
  number of long-term repopulating HSC per mL of blood: tripled
[1]; G4P1X3 vs G4P1, P<0.001, FIG. 3B
  increase in mobilization of repopulating units versus G-CSF+Plerixafor: 3 fold
[1]; G-CSF 4 days + Compound X (G4X3) vs G4, P<0.001, FIG. 3B
  increase in number of mobilized repopulating units versus G-CSF alone: 6 fold
[2]; 1 hr following Plerixafor treatment with or without Compound X, FIG. 1D
  mobilization of HSPC to the spleen: no significant mobilization
[2]; Compound X 1-4 days, G-CSF for the last 2 days, FIG. 1C
  day of Compound X administration at which CFC mobilization into blood and spleen peaks: 3 days
[2]; [3]
  further increase of CFC/mL mobilized into blood: 2.5 fold
  further increase of CFC/spleen: 4 fold
[2]; Compound X added to 4 days G-CSF plus Plerixafor, p<0.005
  boost of CFC/mL blood: 2.5 fold
[2]; Compound X alone for 3 days
  CFC mobilization into the blood: did not induce
[2]; Example 1: Compound X 3 days added to G-CSF, following 2 days of G-CSF, FIG. 1B
  increase in CFCs mobilized per mL blood: 2.5 fold
[2]; Example 1: Compound X 3 days added to G-CSF, following 3 days of G-CSF, FIG. 1B
  increase of CFCs mobilized to the spleen: 6 fold
[2]; Example 3: 4 days G-CSF, addition of Compound X, P<0.001
  increase in the number of CFC/mL blood: 4 fold
[2]; Example 3: 4 days G-CSF, addition of Compound X, P<0.01
  number of CFC/spleen: further significant increase
[2]; Example 3: Compound X alone (data not shown)
  mobilizing effect: no mobilizing effect
[2]; Example 3: G-CSF 250 μg/kg/day 2 days + Compound X 20 mg/kg/day 3 days (G+X3), p<0.001, FIG. 2B
  CFC mobilized to the blood versus G-CSF alone: 4 fold
[2]; Example 3: G-CSF 2 days + Compound X 20 mg/kg/day 3 days (G+X3), p<0.001, FIG. 2B
  CFC mobilized to the spleen versus G-CSF alone: 47 fold
[2]; Plerixafor 1 h plus 2 to 3 day treatment with Compound X, FIG. 1D
  number of CFC mobilized per mL blood in response to Plerixafor: significantly increased
